Source: patent US11492618B2, “Expression control using a regulatable intron” (ASKLEPIOS BIOPHARMACEUTICAL, INC., priority 2017, dated 2022)

Assays:
[1] = test system: UPR; assay: Induction of UPR by candidate inducers, EGFP read-out from SYNP-ATF6-02; assay type: cell-based, human; conditions: HEK293F with SYNP-ATF6-02; DTT 2 mM, palmitate 0.5 mM, MF-43 1 μM; 0-24 hrs
Description: Experiments were performed to assess the ability of several candidate agents to induce the UPR. The ability of these candidate inducers to induce UPR was assessed using the techniques essentially as described above. The additional candidates tested were 0.5 mM palmitic acid, 1 uM MF-43 (2-methyl-5-(6-(4-(2-(trifluoromethyl)phenoxy)piperidin-1-yl)pyridazin-3-yl)-1,3,4-thiadiazole), which is an inhibitor of stearoyl-CoA desaturase, and a combination of both of these (for the same concentrations of each was used).
In these experiments transfections were done in 24-well plates as previously described. The SYNP-ATF6-02 plasmid (i.e. SYNP-ATF6-02 in pMA-RQ vector) was transfected into HEK293F cells and after 24 hrs GFP was measured. Induction of the UPR was then stimulated using the aforementioned inducers and samples were taken and measured at 0, 1, 3, 5 and 24 hrs after induction. GFP expression was measured as previously described. Results are the average of 3 individual experiments and the error bars represent the standard deviation.
Experimental procedure in brief: • 40 ml of cells were grown in a 250 ml vented Erlenmeyer flask (Sigma-Aldrich CLS431144) at 37° C., 8% CO2 with agitation at 100 rpm. […]
AAV production on induction of UPR: The ATF6 plasmid (i.e. SYNP-ATF6-02 in pMA-RQ vector) was transfected into HEK293 cells as previously described. 24 hrs later GFP was measured. […] EGFP fluorescence was then measured after 1, 3, 5 and 24 hrs. […]

[2] = test system: HEK293 cells; assay: Cell death (trypan blue) after induction of intron-controlled caspase 9; assay type: cell-based, human; conditions: HEK293 with SYNP-CASP9-INT, DTT 2 mM
Description: Transfection was performed as previously described. DTT was added at 2 mM and forskolin was added at 10 μM. The latter was carried out to determine whether forskolin could induce the removal of the intron. Amongst other things, forskolin has potential gene therapy applications. Induction of intron removal was measured as function of cell death, with higher cell death an indicator of removal of the intron.
Experiments were performed as described in the methods namely, HEK or CHO-s cells were transfected with the aforementioned construct and incubated for 24 h. After this time the activating compound DTT or Forskolin was added, % cell death was then measured at 3, 5 and 24 h post-induction.
Induction of intron was measured as function of cell death, using the Countess II cell counter (Thermofisher). Cells were stained with trypan blue to ascertain cell viability. 10 μl of cell suspension was added to a Haemocytomer and analysed on the countess.

[3] = test system: HEK293-F cells; assay: Luciferase expression from UPR-inducible promoters with different minimal promoters after 2 mM DTT; assay type: cell-based, human
Source text: The purpose of this experiment was to test the ATF6-containing UPR-responsive cis-regulatory element (also referred to herein as an enhancer) as used in the examples above with different minimal promoters and to further assess their inducibility and tightness of control. To this end, the ATF6-containing UPR-responsive cis-regulatory element was operably linked to the CMV-MP and MinTK (herpes thymidine kinase minimal promoter) minimal promoters The constructs were synthesised by GeneART by chemical synthesis, as above.
As described above, the enhancer sequence contains 6 repeats of the sequence TGACGTGCT (which contains the ATF6 consensus sequence, TGACGTG) spaced by 20 bp spacer sequences. The enhancer sequence was coupled to either MinTK (in construct ATF06-MP001) or CMV-MP (in construct ATF06-MP002).
Transfection of HEK293-F cells was performed as previously described. DTT was added at a concentration of 2 mM. Luciferase activity was measured as previously described. The results are shown in FIG. 17—the DTT was added at time=0 h as shown on the X-axis (units are hours).

[4] = test system: HEK293 cells; assay: SEAP activity from intron-containing SEAP construct after DTT induction; assay type: cell-based, human
Description: (§1) Experiments were performed essentially as described in the above methods, namely, HEK or CHO-s cells were transfected with the aforementioned construct (pMA-RQ) and incubated for 24 hrs. After this time the activating compound DTT was added at 2 mM final concentration, SEAP activity was then measured at 3, 5 and 24 hrs post-induction.
(§2) The protocol for transfection for 24 well plates was as described in Example 1. Thereafter: • Supernatant was measured for SEAP activity after 24 hrs. • Intron splicing from the SEAP construct was measured after addition of either 2 mM DTT by monitoring of SEAP activity after 3, 5 and 24 hrs. • SEAP activity was measured as per manufacturer's instructions, Roche, SEAP reporter gene assay kit, obtained from Sigma-Aldrich, Cat. No. 11 779 842 001.

[5] = test system: CHO cells; assay: as above; assay type: cell-based, Chinese hamster
Description: as §1, §2

[6] = test system: CHO-S cells; assay: EGFP fluorescence from regulatable-intron construct before and after UPR induction with 2 mM DTT; assay type: cell-based, Chinese hamster
Description: (§3) The standard protocol for transfection of these cells was modified for 24 well plates as follows: • 40 ml of cells were grown in a 250 ml vented Erlenmeyer flask (Sigma-Aldrich CLS431144) at 37° C., 8% CO2 with agitation at 100 rpm. Cells were seeded as described in the manufacturer's instructions. • 1 day before transfection cells were counted using a haemocytometer and split to 500,000 cells/ml. • On the day of transfection cells are seeded to 1 million cells/ml in 500 μl of appropriate medium in a 24 well plate. • 0.625 μg of DNA/well was then added to 10 μl of OptiMem medium (Thermofisher; 11058021) and incubated for 5 minutes at room temperature. • Concurrently 0.625 μl of Max reagent was made up to 10 μl by addition of OptiMem and incubated for 5 minutes at room temperature. • After this incubation both mixes were added to the same tube and incubated at room temperature for 25-30 minutes. • The DNA/Max reagent mix (20 μl/well) was then added directly to the cells and the cells incubated as described previously. • Cells were then measured for GFP fluorescence after 24 hrs. • Intron splicing from the GFP construct was measured via addition of 2 mM DTT and monitoring of GFP fluorescence after 1 hr. DTT is a strong reducing agent which induces ER stress by disrupting the formation of disulphide bonds within the ER. […]

[7] = test system: HEK293F cells; assay: as above; assay type: cell-based, human
Description: as §3

Compound: O[C@H](CS)[C@H](O)CS (racemic) [DTT, Dithiothreitol]
- induction of UPR indicated by expression of functional EGFP [1]: very potent inducer of the UPR
- time after treatment at which % of dead cells is equal to the positive control [2]: 5 h
- number of dead cells after 3 h ([2]; 3 h): close to the control construct which contained no intron

Compound: Cc1nnc(-c2ccc(N3CCC(Oc4ccccc4C(F)(F)F)CC3)nn2)s1 [MF-43, 2-methyl-5-(6-(4-(2-(trifluoromethyl)phenoxy)piperidin-1-yl)pyridazin-3-yl)-1,3,4-thiadiazole]
- induction of UPR indicated by expression of functional EGFP [1]: effectively induced the UPR

Compound: CCCCCCCCCCCCCCCC(=O)O [palmitate, palmitic acid]
- induction of UPR indicated by expression of functional EGFP [1]: effectively induced the UPR

Compound: ATF06-MP001: ATF6 enhancer (6 repeats, 20 bp spacers) coupled to MinTK driving luciferase (SEQ ID NO: 59)
- inducibility of luciferase expression by DTT ([3]; 2 mM DTT): good inducibility
- luciferase expression after induction of the UPR versus CMV-IE promoter ([3]; 2 mM DTT): significantly higher than provided by the constitutive CMV-IE promoter
- luciferase expression prior to addition of DTT ([3]; before 2 mM DTT): negligible expression

Compound: SEAP-ATF6-001: SEAP expression construct with 6×ATF6 spaced by 20 bp, CMV-MP and regulatable intron (SEQ ID NO: 34)
- SEAP expression after 24 h higher than CMV-IE ([4]; HEK293, 2 mM DTT, 24 h): ~2 fold
- SEAP expression before induction ([4]; HEK293, no DTT): no SEAP expression
- SEAP expression after 24 h higher than CMV-IE ([5]; 2 mM DTT, 24 h, CMV-IE shown in HEK293): ~2 fold
- SEAP expression before induction ([5]; no DTT): no SEAP expression

Compound: SYNP-XBP-01: CMV-MP controlling expression of EGFP with XBP1 intron (SEQ ID NO: 28), in plasmid pMA-RQ
- GFP fluorescence induced upon addition of 2 mM DTT ([6]; 2 mM DTT): > 1000 fold
- background GFP fluorescence before induction ([6]; no DTT): no background at all
- GFP production induced upon inducing ER-Stress ([7]; 2 mM DTT, 1 hr after treatment, 3 independent experiments): 4-10 fold
- resultant GFP activity higher than the positive control ([7]; after 2 mM DTT, control CMV-MP-GFP): 2.5-7 fold
- background GFP fluorescence before induction ([7]; no DTT, versus control): considerably lower than the control
